For 49 molecules, IC50 results are on record in patent US8530461B2 (Boehringer Ingelheim International GmbH, priority 2011, dated 2013).

The target of this assay is T1, human ACC2 (Homo sapiens, UniProt O00763).
T1 construct: made in house; host or cells: insect cells (baculoviral expression system)
T1 sequence (O00763 129-2458 limits assumed): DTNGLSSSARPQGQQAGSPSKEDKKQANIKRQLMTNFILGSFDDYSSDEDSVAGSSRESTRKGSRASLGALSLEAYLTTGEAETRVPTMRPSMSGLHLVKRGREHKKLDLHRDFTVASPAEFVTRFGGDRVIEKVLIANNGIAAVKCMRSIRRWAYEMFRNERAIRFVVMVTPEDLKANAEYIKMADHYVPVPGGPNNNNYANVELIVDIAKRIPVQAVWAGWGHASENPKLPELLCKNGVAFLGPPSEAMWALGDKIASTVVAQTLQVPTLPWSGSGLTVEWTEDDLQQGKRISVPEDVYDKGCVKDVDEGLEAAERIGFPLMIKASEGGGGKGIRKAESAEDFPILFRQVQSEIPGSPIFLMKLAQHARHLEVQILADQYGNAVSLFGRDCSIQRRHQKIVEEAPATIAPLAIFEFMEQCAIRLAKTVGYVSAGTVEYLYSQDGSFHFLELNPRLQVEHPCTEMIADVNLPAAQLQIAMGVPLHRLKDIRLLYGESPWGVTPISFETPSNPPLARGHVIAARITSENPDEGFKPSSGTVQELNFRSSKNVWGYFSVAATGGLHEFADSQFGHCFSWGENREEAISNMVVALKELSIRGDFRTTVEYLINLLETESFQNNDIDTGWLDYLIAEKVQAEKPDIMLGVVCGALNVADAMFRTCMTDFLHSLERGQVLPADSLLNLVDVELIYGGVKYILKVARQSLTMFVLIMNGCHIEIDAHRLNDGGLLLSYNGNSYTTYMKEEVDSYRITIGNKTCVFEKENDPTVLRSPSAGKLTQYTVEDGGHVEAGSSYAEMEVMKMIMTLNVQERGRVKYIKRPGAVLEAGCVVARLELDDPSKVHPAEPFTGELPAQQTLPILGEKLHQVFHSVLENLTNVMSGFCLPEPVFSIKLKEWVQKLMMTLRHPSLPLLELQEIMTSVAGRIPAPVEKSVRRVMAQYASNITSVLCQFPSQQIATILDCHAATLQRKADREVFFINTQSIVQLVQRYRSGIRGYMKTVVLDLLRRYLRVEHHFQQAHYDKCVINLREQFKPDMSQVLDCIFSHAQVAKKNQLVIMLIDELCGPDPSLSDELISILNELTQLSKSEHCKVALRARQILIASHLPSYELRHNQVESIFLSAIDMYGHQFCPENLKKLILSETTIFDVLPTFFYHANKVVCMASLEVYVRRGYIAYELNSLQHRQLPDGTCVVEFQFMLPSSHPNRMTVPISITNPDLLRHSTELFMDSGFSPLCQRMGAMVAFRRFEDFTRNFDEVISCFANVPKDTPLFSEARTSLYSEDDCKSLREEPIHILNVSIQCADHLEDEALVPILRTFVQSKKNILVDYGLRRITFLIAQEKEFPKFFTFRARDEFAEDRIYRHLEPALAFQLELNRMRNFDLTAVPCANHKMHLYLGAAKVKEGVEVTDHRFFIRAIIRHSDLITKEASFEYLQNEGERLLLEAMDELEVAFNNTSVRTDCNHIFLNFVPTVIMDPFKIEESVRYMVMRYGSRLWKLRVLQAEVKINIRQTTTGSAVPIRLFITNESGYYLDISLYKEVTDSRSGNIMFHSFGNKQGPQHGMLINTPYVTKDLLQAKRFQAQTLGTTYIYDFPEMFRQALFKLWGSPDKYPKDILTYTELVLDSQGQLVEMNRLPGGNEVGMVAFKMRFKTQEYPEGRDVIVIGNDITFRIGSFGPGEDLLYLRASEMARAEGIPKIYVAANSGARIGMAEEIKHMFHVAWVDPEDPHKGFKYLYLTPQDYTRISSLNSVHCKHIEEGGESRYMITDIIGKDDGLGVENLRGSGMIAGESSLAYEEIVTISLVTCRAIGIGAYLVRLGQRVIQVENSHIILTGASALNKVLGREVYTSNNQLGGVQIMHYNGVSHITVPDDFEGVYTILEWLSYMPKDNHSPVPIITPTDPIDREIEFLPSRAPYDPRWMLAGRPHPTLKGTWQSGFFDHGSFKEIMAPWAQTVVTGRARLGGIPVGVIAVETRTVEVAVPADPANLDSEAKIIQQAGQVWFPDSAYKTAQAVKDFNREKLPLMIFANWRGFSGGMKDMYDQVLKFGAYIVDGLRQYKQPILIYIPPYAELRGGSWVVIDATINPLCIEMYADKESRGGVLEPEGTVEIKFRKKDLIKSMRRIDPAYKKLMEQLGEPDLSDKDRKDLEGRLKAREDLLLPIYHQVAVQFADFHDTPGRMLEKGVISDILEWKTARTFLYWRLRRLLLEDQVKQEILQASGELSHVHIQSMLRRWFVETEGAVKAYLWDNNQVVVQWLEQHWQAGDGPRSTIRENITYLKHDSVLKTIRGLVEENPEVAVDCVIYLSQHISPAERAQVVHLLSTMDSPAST
The assay can be described thus: ACC2 assay, spectrophotometric 384 well assay (NADH-linked, coupled lactate dehydrogenase/pyruvate kinase). In kind it is biochemical. Particulars: ACC2 assay; human ACC2 construct lacking 128 N-terminal amino acids; 25° C., 340 nm, 15 minutes; read-out: IC50. The procedure: Spectrophotometric 384 Well Assay
Malonyl CoA formation by acetyl CoA carboxylases is stoichometrically linked to the consumption of ATP. ACC2 activity is measured in a NADH-linked kinetic method measuring ADP generated during the ACC reaction using a coupled lactate dehydrogenase/pyruvate kinase reaction.
For biological testing, a human ACC2 construct which lacks the 128 amino acids at the N-terminus for increased solubility (nt 385-6966 in Genbank entry AJ575592) is cloned. The protein is then expressed in insect cells using a baculoviral expression system. Protein purification is performed by anion exchange.
All compounds are dissolved in dimethyl sulfoxide (DMSO) to a concentration of 10 mM.
Assay reactions are then carried out in 384-well plates, with hACC2 in an appropriate dilution and at final assay concentrations (f.c.) of 100 mM Tris (pH 7.5), 10 mM trisodium citrate, 25 mM KHCO3, 10 mM MgCl2, 0.5 mg/ml BSA, 3.75 mM reduced L-glutathione, 15 U/ml lactate dehydrogenase, 0.5 mM phosphoenolpyruvate, 15 U/ml pyruvate kinase, compounds at different concentrations at final DMSO concentrations of 1%.
The enzymatic reaction is then started by addition of a mixture of NADH, acetyl Coenzyme A (both […].) and ATP (500 uM f.c.). The decrease of the optical density (slope S) is then determined at 25° C. at a wavelength of 340 nm over 15 minutes in a spectrophotometric reader.
Each assay microtiter plate contains wells with vehicle instead of compound as controls for the non-inhibited enzyme (100% CTL; ‘HIGH’) and wells without acetyl-CoA as controls for non-specific NADH degradation (0% CTL; ‘LOW’).
The slope S is used for calculation of % CTL=(S(compound)−S(‘LOW’))/(S(‘HIGH’)−S(‘LOW’))100. Compounds will give values between 100% CTL (no inhibition) and 0% CTL (complete inhibition).
For IC50 value determination, the sample slope in the presence of the test compound after subtraction of the low controls (S(compound)−S(‘LOW’)) are used.
An IC50 value is derived from the compound slopes at different dosages after subtraction of the low controls (S(compound)−S(‘LOW’)) by non-linear regression curve fitting (equation y=(A+((B−A)/(1+((C/x)^D))))).
As for `CCOc1ccc(OC2CN(c3ccc([C@H](C)NC(=O)C4CC4)cc3)C2)c(F)c1` [Example 7.2, (S)-Cyclopropanecarboxylic acid (1-{4-[3-(4-ethoxy-2-fluoro-phenoxy)-azetidin-1-yl]-phenyl}-ethyl)-amide], the 50% inhibitory concentration (IC50) stood at 2420 nM. For the molecule `CCOc1ccc(OC2CN(c3ccc([C@H](C)NC(=O)N(C)C)cc3)C2)c(F)c1` [Example 8.1, (S)-3-(1-{4-[3-(4-Ethoxy-2-fluoro-phenoxy)-azetidin-1-yl]-phenyl}-ethyl)-1,1-dimethyl-urea], the IC50 turned out to be 250 nM.

Consider `CCOc1ccc(OC2CN(c3ccc([C@H](C)NC(=O)c4cn[nH]c4)cc3)C2)c(F)c1` [Example 8.2, (S)-1H-Pyrazole-4-carboxylic acid (1-{4-[3-(4-ethoxy-2-fluoro-phenoxy)-azetidin-1-yl]-phenyl}-ethyl)-amide], for which the IC50 was determined as 2980 nM.

As for `C[C@H](NC(=O)OC(C)(C)C)c1ccc(N2CC(Oc3ccc(OCC4CC4)cc3)C2)cc1` [Example 8.3, (S)-(1-{4-[3-(4-Cyclopropylmethoxy-phenoxy)-azetidin-1-yl]-phenyl}-ethyl)-carbamic acid tert-butyl ester], the half-maximal inhibitory concentration (IC50) was found to be 1370 nM. Consider `CCOc1ccc(OC2CN(c3ccc([C@H](C)NC(=O)c4sc(NC(C)=O)nc4C)cc3)C2)c(F)c1` [Example 8.4, (S)-2-Acetylamino-4-methyl-thiazole-5-carboxylic acid (1-{4-[3-(4-ethoxy-2-fluoro-phenoxy)-azetidin-1-yl]-phenyl}-ethyl)-amide], for which the IC50 is 110 nM. The value for `CC(=O)N[C@@H](C)c1ccc(N2CC(Oc3ccc(OCc4ccccc4)cc3)C2)cc1` [Example 8.5, (S)—N-(1-{4-[3-(4-Benzyloxy-phenoxy)-azetidin-1-yl]-phenyl}-ethyl)-acetamide] was 140 nM; that for `CCOc1ccc(OC2CN(c3ccc(C(C)NC(C)=O)cn3)C2)cc1` (stereo not shown) [Example 8.6, N-(1-{6-[3-(4-Ethoxy-phenoxy)-azetidin-1-yl]-pyridin-3-yl}-ethyl)-acetamide] was 170 nM. The value for `CC(=O)N[C@@H](C)c1ccc(N2CC(Oc3cc(OCc4ccccc4)ccn3)C2)cc1` [Example 8.7, (S)—N-(1-{4-[3-(4-Benzyloxy-pyridin-2-yloxy)-azetidin-1-yl]-phenyl}-ethyl)-acetamide] was 2240 nM. Turning to `CC(=O)N[C@@H](C)c1ccc(N2CC(Oc3ccc(C(F)(F)F)cn3)C2)cc1` [Example 8.8, (S)—N-(1-{4-[3-(5-Trifluoromethyl-pyridin-2-yloxy)-azetidin-1-yl]-phenyl}-ethyl)-acetamide], the IC50 is 810 nM.

For `CC(=O)N[C@@H](C)c1ccc(N2CC(Oc3ccc(OC(C)C)cc3)C2)cc1` [Example 9.1, (S)—N-(1-{4-[3-(4-Isopropoxy-phenoxy)-azetidin-1-yl]-phenyl}-ethyl)-acetamide], the IC50 is 70 nM. Regarding `CCOc1ccc(OC2CN(c3ccc([C@H](C)NC(C)=O)cc3)C2)cc1` [Example 9.2], the concentration for half-maximal inhibition (IC50) stood at 90 nM. The value for `CCCOc1ccc(OC2CN(c3ccc([C@H](C)NC(C)=O)cc3)C2)cc1` [Example 9.3] was 50 nM. The figure for `CC(=O)N[C@@H](C)c1ccc(N2CC(Oc3ccc(OC4CCC4)cc3)C2)cc1` [Example 9.4] is 40 nM.

Consider `CC(=O)N[C@@H](C)c1ccc(N2CC(Oc3ccc(OCC4CC4(F)F)cc3)C2)cc1` (stereo partly shown) [Example 9.5], for which the half-maximal inhibitory concentration (IC50) came to 40 nM. Consider `CC(=O)N[C@@H](C)c1ccc(N2CC(Oc3ccc(C)c(F)c3F)C2)cc1` [Example 10.1, (S)—N-(1-{4-[3-(2,3-Difluoro-4-methyl-phenoxy)-azetidin-1-yl]-phenyl}-ethyl)-acetamide], for which the half-inhibitory concentration (IC50) was 1280 nM. The figure for `CC(=O)N[C@@H](C)c1ccc(N2CC(Oc3ccc(OC(F)(F)F)cc3)C2)cc1` [Example 10.2] is 780 nM. The value for `CC(=O)N[C@@H](C)c1ccc(N2CC(Oc3ccc(-n4cccc4)cc3Cl)C2)cc1` [Example 10.3] was 910 nM.

In the case of `COc1ccc(OC2CN(c3ccc([C@H](C)NC(C)=O)cc3)C2)c(F)c1` [Example 10.4], the concentration for half-maximal inhibition (IC50) was found to be 280 nM. The value for `CC(=O)N[C@@H](C)c1ccc(N2CC(Oc3ccc(OC(C)(C)C)cc3)C2)cc1` [Example 10.5] was 640 nM. The value for `CCOc1cc(F)c(OC2CN(c3ccc([C@H](C)NC(C)=O)cc3)C2)c(F)c1` [Example 10.6] was 330 nM. `CCOc1ccc(OC2CN(c3ccc([C@H](C)NC(C)=O)cc3)C2)c(F)c1F` [Example 10.7]: the half-inhibitory concentration (IC50) was 200 nM. The figure for `COc1ccc(OC2CN(c3ccc([C@H](C)NC(C)=O)cc3)C2)cn1` [Example 10.8] is 740 nM; for `CCC(C)c1ccc(OC2CN(c3ccc([C@H](C)NC(C)=O)cc3)C2)cc1` (stereo partly shown) [Example 10.10] it is 120 nM.

Turning to `CC(=O)N[C@@H](C)c1ccc(N2CC(Oc3ccc4oc(C)cc4c3)C2)cc1` [Example 10.11], the IC50 came to 100 nM.

Take `CC(=O)N[C@@H](C)c1ccc(N2CC(Oc3ccccc3)C2)cc1` [Example 10.12]: the IC50 was determined as 790 nM. The figure for `CC(=O)N[C@@H](C)c1ccc(N2CC(Oc3ccc4c(c3)OCO4)C2)cc1` [Example 10.13] is 320 nM; for `CC(=O)N[C@@H](C)c1ccc(N2CC(Oc3ccc(C)cc3)C2)cc1` [Example 10.14] it is 610 nM; for `CC(=O)N[C@@H](C)c1ccc(N2CC(Oc3ccccc3C)C2)cc1` [Example 10.15] it is 950 nM. Regarding `CC(=O)N[C@@H](C)c1ccc(N2CC(Oc3ccc(Cl)cc3F)C2)cc1` [Example 10.16], the IC50 was 2230 nM. The value for `CC(=O)N[C@@H](C)c1ccc(N2CC(Oc3cc(C(F)(F)F)ccc3F)C2)cc1` [Example 10.17] was 110 nM; that for `COc1ccc(OC2CN(c3ccc([C@H](C)NC(C)=O)cc3)C2)c(F)c1F` [Example 10.18] was 560 nM; that for `COCCOc1ccc(OC2CN(c3ccc([C@H](C)NC(C)=O)cc3)C2)cc1` [Example 10.19] was 140 nM.

As to `C[C@H](NC(=O)C1CC1)c1ccc(N2CC(Oc3ccc(OC(F)(F)F)cc3)C2)cc1` [Example 10.20], the IC50 was determined as 4400 nM. The value for `COc1ccc(OC2CN(c3ccc([C@H](C)NC(=O)C4CC4)cc3)C2)c(F)c1` [Example 10.21] was 3990 nM. The figure for `C[C@H](NC(=O)C1CC1)c1ccc(N2CC(Oc3ccc(OC(C)(C)C)cc3)C2)cc1` [Example 10.22] is 1270 nM; for `CCOc1cc(F)c(OC2CN(c3ccc([C@H](C)NC(=O)C4CC4)cc3)C2)c(F)c1` [Example 10.23] it is 130 nM. The value for `CCOc1ccc(OC2CN(c3ccc([C@H](C)NC(=O)C4CC4)cc3)C2)c(F)c1F` [Example 10.24] was 2260 nM; that for `COc1ccc(OC2CN(c3ccc([C@H](C)NC(=O)C4CC4)cc3)C2)cn1` [Example 10.25] was 3370 nM. In the case of `CCC(C)c1ccc(OC2CN(c3ccc([C@H](C)NC(=O)C4CC4)cc3)C2)cc1` (stereo partly shown) [Example 10.26], the IC50 came out at 370 nM. The figure for `Cc1cc2cc(OC3CN(c4ccc([C@H](C)NC(=O)C5CC5)cc4)C3)ccc2o1` [Example 10.27] is 170 nM.

For `C[C@H](NC(=O)C1CC1)c1ccc(N2CC(Oc3ccc4c(c3)OCO4)C2)cc1` [Example 10.28], the IC50 is 2080 nM. The value for `COc1ccc(OC2CN(c3ccc([C@H](C)NC(C)=O)cc3)C2)c(Cl)c1` [Example 10.29] was 570 nM. The value for `CCOc1c(F)cc(OC2CN(c3ccc([C@H](C)NC(=O)C4CC4)cc3)C2)cc1F` [Example 10.30] was 1560 nM; that for `CCOc1c(F)cc(OC2CN(c3ccc([C@H](C)NC(C)=O)cc3)C2)cc1F` [Example 10.31] was 300 nM; that for `COc1ccc(OC2CN(c3ccc([C@H](C)NC(C)=O)cc3)C2)cn1` [Example 10.32] was 730 nM.

`CC(=O)N[C@@H](C)c1ccc(N2CC(Oc3ccnc(OCC4CC4)c3)C2)cc1` [Example 11.1, (S)—N-(1-{4-[3-(2-Cyclopropylmethoxy-pyridin-4-yloxy)-azetidin-1-yl]-phenyl}-ethyl)-acetamide]: the IC50 is 80 nM. As for `CC(=O)N[C@@H](C)c1ccc(N2CC(Oc3ccnc(O[C@@H]4CCOC4)c3)C2)cc1` [Example 11.2], the half-maximal inhibitory concentration (IC50) was determined as 270 nM. The value for `CC(=O)N[C@@H](C)c1ccc(N2CC(Oc3ccnc(OCC(C)C)c3)C2)cc1` [Example 11.3] was 60 nM. The figure for `CC(=O)N[C@@H](C)c1ccc(N2CC(Oc3ccnc(OCC4CC4(F)F)c3)C2)cc1` (stereo partly shown) [Example 11.5] is 100 nM.
